Data set [1] deals with PMA-differentiated U937 cells. In words: MTT Assay (cell viability). As to conditions: percentage loss of cell viability; for Cell Viability MTT Assay in D-U937 cells at 4 hr: 4 hr in 5% FCS; for Cell Viability MTT Assay in D-U937 cells at 24 hr: 24 hr in 10% FCS. It counts as cell-based, Human. An outline of the steps:
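Differentiated U937 cells treated with compound for 4 hr (5% FCS) or 24 hr (10% FCS), then given MTT for 1 hr; formazan dissolved in DMSO and absorbance read at 550 nm. Viability loss expressed as % versus 0.5% DMSO vehicle.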

Another data set concerns the target recombinant PI3 kinase α (Homo sapiens (Human), UniProt P42336). Nature of the data set: Enzyme Inhibition Assay (HTRF PI3K enzyme assay, TR-FRET). The conditions noted are these: activity range; read-out: PI3 Kinase Inhibition IC50 values at stated Isozyme α. It counts as biochemical. Summed up: (§1)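 Recombinant PI3Kα, δ or γ incubated with PIP2 substrate and compound for 2 hr at RT. Stop solution with biotin-PIP3 and GST-GRP1 PH domain/Eu-anti-GST/SA-APC detection mix added, then 15-18 hr at RT. PIP3 formed reduces the TR-FRET signal.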
(TR-FRET usually uses a lanthanide donor and a delayed reading to cut background.)

The next data set concerns the target recombinant PI3 kinase δ (Homo sapiens (Human), UniProt O00329). The description is as above. The conditions noted are these: activity range; read-out: PI3 Kinase Inhibition IC50 values at stated Isozyme δ. The data set is classed as biochemical. An outline of the steps: as §1
The next data set has as its target recombinant PI3 kinase γ (Homo sapiens (Human), UniProt P48736). Described as above. The conditions noted are these: activity range; read-out: PI3 Kinase Inhibition IC50 values at stated Isozyme γ. It counts as biochemical. An outline of the steps: as §1
The subject of data set [2] is H2O2 induced pAkt in D-U937 cells. In words: PI3Kδ Cell Based Assay (H2O2 induced pAkt). The conditions noted are these: Homo sapiens, dU937; activity range; D-U937 cells; read-out: Cellular Activity IC50 values (H2O2 induced pAkt D-U937 Cells). An outline of the steps:
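U937 cells differentiated to macrophage-type cells with PMA (100 ng/mL, 48 to 72 hr), then stimulated with H2O2. pAkt and total Akt detected by antibody-based immunoassay. Ratio of pAkt to total Akt signal used; IC50 from concentration-response curves of serially diluted compounds.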

Some results are limits rather than exact numbers.

recombinant PI3 kinase δ, sequence (O00329 whole entry): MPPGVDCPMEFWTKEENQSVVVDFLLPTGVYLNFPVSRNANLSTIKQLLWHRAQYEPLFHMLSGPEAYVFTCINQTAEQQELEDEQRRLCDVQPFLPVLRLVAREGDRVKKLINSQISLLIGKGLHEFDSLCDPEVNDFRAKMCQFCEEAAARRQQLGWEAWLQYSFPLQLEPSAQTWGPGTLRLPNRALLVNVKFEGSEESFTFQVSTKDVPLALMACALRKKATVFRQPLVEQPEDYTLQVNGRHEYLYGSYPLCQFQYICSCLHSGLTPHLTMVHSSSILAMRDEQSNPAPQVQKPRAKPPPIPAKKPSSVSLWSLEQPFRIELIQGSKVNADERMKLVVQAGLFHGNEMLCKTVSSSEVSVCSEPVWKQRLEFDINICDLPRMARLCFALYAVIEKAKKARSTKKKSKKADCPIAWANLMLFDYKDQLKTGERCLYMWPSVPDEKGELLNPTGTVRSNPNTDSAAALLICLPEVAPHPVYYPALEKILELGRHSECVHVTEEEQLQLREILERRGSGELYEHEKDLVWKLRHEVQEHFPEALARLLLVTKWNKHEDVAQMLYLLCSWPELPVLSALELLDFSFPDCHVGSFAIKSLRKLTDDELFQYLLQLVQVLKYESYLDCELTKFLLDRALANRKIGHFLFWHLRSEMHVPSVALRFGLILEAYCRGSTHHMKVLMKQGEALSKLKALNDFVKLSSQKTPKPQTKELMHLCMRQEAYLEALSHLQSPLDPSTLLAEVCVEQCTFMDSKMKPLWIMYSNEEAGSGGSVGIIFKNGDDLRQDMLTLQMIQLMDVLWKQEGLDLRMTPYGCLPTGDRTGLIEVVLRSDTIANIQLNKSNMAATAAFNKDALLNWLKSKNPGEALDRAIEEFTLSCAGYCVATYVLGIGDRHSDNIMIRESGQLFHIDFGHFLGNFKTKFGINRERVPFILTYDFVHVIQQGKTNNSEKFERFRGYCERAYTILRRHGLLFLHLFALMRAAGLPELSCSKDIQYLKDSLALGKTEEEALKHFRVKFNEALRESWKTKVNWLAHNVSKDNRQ
recombinant PI3 kinase δ, sequence (P27986 whole entry partner): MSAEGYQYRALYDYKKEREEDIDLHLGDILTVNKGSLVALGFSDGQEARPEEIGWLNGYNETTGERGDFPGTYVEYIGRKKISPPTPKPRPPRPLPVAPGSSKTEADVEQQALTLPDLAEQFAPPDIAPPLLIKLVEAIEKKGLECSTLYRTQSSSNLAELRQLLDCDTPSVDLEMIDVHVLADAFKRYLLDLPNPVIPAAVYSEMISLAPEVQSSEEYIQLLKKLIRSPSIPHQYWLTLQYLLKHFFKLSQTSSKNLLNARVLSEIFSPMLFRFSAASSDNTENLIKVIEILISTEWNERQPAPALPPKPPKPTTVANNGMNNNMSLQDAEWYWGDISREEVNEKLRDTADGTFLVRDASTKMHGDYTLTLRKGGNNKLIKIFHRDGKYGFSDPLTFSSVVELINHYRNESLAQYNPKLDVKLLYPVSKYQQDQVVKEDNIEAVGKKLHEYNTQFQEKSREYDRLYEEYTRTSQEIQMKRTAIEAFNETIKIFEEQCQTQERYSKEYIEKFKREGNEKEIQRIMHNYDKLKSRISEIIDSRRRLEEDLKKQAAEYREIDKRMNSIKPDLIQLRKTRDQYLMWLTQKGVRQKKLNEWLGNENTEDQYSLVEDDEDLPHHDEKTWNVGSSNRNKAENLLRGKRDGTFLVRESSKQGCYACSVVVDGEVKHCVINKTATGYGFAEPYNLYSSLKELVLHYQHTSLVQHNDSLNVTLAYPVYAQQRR
recombinant PI3 kinase γ, sequence (P48736 whole entry): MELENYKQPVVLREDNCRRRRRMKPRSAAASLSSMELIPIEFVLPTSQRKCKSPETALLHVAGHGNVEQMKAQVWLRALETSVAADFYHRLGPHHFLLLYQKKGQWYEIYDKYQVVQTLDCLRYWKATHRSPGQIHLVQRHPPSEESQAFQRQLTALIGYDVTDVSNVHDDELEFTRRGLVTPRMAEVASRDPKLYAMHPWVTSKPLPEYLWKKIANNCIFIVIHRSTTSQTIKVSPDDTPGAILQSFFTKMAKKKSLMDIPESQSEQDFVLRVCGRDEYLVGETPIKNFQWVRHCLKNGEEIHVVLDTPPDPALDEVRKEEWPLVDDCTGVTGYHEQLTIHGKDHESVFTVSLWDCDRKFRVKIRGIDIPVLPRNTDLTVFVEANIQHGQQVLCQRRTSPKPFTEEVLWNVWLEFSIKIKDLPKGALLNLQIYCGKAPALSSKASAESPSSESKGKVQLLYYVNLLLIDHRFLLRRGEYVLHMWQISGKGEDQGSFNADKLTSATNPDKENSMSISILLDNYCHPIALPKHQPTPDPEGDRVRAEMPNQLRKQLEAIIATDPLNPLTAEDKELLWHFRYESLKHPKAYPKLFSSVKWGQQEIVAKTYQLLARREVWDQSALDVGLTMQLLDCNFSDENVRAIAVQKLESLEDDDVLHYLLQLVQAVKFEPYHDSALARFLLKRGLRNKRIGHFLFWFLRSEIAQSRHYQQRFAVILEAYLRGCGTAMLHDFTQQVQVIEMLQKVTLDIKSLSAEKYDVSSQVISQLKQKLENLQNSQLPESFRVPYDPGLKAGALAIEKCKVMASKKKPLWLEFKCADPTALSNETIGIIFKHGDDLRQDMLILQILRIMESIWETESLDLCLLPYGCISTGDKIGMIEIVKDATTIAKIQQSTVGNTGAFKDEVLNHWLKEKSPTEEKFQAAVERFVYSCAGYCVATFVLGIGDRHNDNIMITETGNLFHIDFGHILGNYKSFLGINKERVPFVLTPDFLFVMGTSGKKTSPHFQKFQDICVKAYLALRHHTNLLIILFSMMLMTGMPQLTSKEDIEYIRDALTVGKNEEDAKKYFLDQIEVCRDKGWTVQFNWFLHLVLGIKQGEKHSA
recombinant PI3 kinase α, sequence (P42336 whole entry, the tested form may be a part): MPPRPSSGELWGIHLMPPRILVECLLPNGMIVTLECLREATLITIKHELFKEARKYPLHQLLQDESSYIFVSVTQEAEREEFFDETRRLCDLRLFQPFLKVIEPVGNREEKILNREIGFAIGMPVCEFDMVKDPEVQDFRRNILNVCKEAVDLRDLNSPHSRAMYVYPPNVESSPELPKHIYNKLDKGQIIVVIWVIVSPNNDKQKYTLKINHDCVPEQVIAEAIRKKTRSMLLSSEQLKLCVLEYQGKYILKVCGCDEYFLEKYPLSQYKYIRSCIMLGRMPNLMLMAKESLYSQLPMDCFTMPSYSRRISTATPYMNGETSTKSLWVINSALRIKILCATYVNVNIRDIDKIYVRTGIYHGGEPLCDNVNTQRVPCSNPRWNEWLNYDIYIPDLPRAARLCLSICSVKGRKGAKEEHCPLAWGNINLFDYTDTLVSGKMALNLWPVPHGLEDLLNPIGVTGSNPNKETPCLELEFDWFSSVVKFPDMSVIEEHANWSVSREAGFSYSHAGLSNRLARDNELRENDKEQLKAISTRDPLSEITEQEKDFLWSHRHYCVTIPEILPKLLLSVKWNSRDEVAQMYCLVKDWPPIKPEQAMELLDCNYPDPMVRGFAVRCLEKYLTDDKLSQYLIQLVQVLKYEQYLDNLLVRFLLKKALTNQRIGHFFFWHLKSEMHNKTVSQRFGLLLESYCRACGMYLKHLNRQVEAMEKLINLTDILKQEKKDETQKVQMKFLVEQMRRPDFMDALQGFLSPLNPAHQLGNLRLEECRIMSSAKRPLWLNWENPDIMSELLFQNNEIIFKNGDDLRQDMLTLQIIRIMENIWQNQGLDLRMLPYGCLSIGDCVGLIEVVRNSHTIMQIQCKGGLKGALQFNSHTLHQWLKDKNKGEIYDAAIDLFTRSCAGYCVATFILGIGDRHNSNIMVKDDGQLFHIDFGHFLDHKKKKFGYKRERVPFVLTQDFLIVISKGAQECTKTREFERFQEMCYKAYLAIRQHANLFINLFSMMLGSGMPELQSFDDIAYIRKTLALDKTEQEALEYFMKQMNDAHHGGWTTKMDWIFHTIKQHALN
recombinant PI3 kinase α, sequence (P27986 whole entry partner, the tested form may be a part): as the sequence (P27986 whole entry partner) above

What is called IC50 is the concentration at which inhibition is half-maximal. For `COC(=O)c1cccc(Cn2c(Cn3nc(-c4cccc(O)c4)c4c(N)ncnc43)nc3cccc(C#CCCCC(=O)N4CCOCC4)c3c2=O)c1` [Example 65, Methyl 3-((2-((4-amino-3-(3-hyroxyphenyl)-1H-pyrazolo[3,4-d]pyrimidin-1-yl)methyl)-5-(6-morpholino-6-oxohex-1-yn-1-yl)-4-oxoquinazolin-3(4H)-yl)methyl)benzoate], in data set [1], the “Cell Viability MTT Assay in D-U937 cells at 4 hr” value is “− (− <30%)”. The “Cell Viability MTT Assay in D-U937 cells at 24 hr” value in data set [1] is “− (− <30%)”. In addition, the concentration for half-maximal inhibition (IC50) is 50 to 1000 nM at recombinant PI3 kinase α, under 50 nM on recombinant PI3 kinase δ, under 50 nM on recombinant PI3 kinase γ and under 10 nM in data set [2].
Turning to `Cn1cc(Cn2c(Cn3nc(-c4cccc(O)c4)c4c(N)ncnc43)nc3cccc(C#CCCCC(=O)N4CCOCC4)c3c2=O)cn1` [Example 66], the “Cell Viability MTT Assay in D-U937 cells at 4 hr” value in data set [1] was “− (− <30%)”. For the same compound, the “Cell Viability MTT Assay in D-U937 cells at 24 hr” value in data set [1] is “+ (+ >30%)”. Besides, the IC50 on recombinant PI3 kinase α is 50 to 1000 nM; at recombinant PI3 kinase δ it was under 50 nM; on recombinant PI3 kinase γ, under 50 nM; in data set [2], under 10 nM.
`Nc1ncnc2c1c(-c1cccc(O)c1)nn2Cc1nc2cccc(C#CCCCC(=O)N3CCOCC3)c2c(=O)n1Cc1ccc2occc2c1` [Example 67, 2-((4-Amino-3-(3-hydroxyphenyl)-1H-pyrazolo[3,4-d]pyrimidin-1-yl)methyl)-3-(benzofuran-5-ylmethyl)-5-(6-morpholino-6-oxohex-1-yn-1-yl)quinazolin-4(3H)-one]: the “Cell Viability MTT Assay in D-U937 cells at 4 hr” value in data set [1] was “− (− <30%)”. Moreover, the “Cell Viability MTT Assay in D-U937 cells at 24 hr” value in data set [1] was “− (− <30%)”. Also, the half-inhibitory concentration (IC50) was 50 to 1000 nM at recombinant PI3 kinase α, under 50 nM on recombinant PI3 kinase δ, under 50 nM on recombinant PI3 kinase γ and under 10 nM in data set [2].
For `Cc1nc(Cn2c(Cn3nc(-c4cccc(O)c4)c4c(N)ncnc43)nc3cccc(C#CCCCC(=O)N4CCOCC4)c3c2=O)cs1` [Example 68, 2-((4-Amino-3-(3-hydroxyphenyl)-1H-pyrazolo[3,4-d]pyrimidin-1-yl)methyl)-3-((2-methylthiazol-4-yl)methyl)-5-(6-morpholino-6-oxohex-1-yn-1-yl)quinazolin-4(3H)-one], the “Cell Viability MTT Assay in D-U937 cells at 4 hr” value in data set [1] is listed as “− (− <30%)”. In data set [1], the “Cell Viability MTT Assay in D-U937 cells at 24 hr” value is given as “− (− <30%)”. The IC50 on recombinant PI3 kinase α was 50 to 1000 nM; on recombinant PI3 kinase δ, under 50 nM; at recombinant PI3 kinase γ, under 50 nM; in data set [2] it was under 10 nM.
`CN1CCN(C(=O)CCCC#Cc2cccc3nc(Cn4nc(-c5cccc(O)c5)c5c(N)ncnc54)n(Cc4ccccc4Cl)c(=O)c23)CC1` [Example 69, 2-((4-Amino-3-(3-hydroxyphenyl)-1H-pyrazolo[3,4-d]pyrimidin-1-yl)methyl)-3-(2-chlorobenzyl)-5-(6-(4-methylpiperazin-1-yl)-6-oxohex-1-yn-1-yl)quinazolin-4(3H)-one]: the “Cell Viability MTT Assay in D-U937 cells at 4 hr” value in data set [1] is listed as “+ (+ >30%)”. In addition, the “Cell Viability MTT Assay in D-U937 cells at 24 hr” value in data set [1] is reported as “− (− <30%)”. The IC50 at recombinant PI3 kinase α was 50 to 1000 nM; at recombinant PI3 kinase δ, under 50 nM; on recombinant PI3 kinase γ, under 50 nM; in data set [2], under 10 nM.
With `Nc1ncnc2c1c(-c1cccc(O)c1)nn2Cc1nc2cccc(C#CCCCC(=O)N3CCC(N4CCOCC4)CC3)c2c(=O)n1Cc1ccccc1Cl` [Example 70, 2-((4-Amino-3-(3-hydroxyphenyl)-1H-pyrazolo[3,4-d]pyrimidin-1-yl)methyl)-3-(2-chlorobenzyl)-5-(6-(4-morpholinopiperidin-1-yl)-6-oxohex-1-yn-1-yl)quinazolin-4(3H)-one], the “Cell Viability MTT Assay in D-U937 cells at 4 hr” value in data set [1] was “− (− <30%)”. For the same compound, the “Cell Viability MTT Assay in D-U937 cells at 24 hr” value in data set [1] was “− (− <30%)”. Further, the IC50 was 50 to 1000 nM at recombinant PI3 kinase α, under 50 nM at recombinant PI3 kinase δ, under 50 nM on recombinant PI3 kinase γ and under 10 nM in data set [2].
In the case of `CC(=O)N1CCN(C(=O)CCCC#Cc2cccc3nc(Cn4nc(-c5ccc(O)cc5)c5c(N)ncnc54)n(Cc4ccccc4Cl)c(=O)c23)CC1` [Example 71], the “Cell Viability MTT Assay in D-U937 cells at 4 hr” value in data set [1] is “− (− <30%)”. Further, in data set [1], the “Cell Viability MTT Assay in D-U937 cells at 24 hr” value is recorded as “− (− <30%)”. In addition, the IC50 at recombinant PI3 kinase α is 50 to 1000 nM; on recombinant PI3 kinase δ it was under 50 nM; on recombinant PI3 kinase γ it was under 50 nM; in data set [2], under 10 nM.
For `Nc1ncnc2c1c(-c1cccc(O)c1)nn2Cc1nc2cccc(C#CCCNC(=O)N3CCOCC3)c2c(=O)n1Cc1ccccc1Cl` [Example 72, N-(4-(2-((4-Amino-3-(3-hydroxyphenyl)-1H-pyrazolo[3,4-d]pyrimidin-1-yl)methyl)-3-(2-chlorobenzyl)-4-oxo-3,4-dihydroquinazolin-5-yl)but-3-yn-1-yl)morpholine-4-carboxamide], the “Cell Viability MTT Assay in D-U937 cells at 4 hr” value in data set [1] is reported as “− (− <30%)”. Besides, in data set [1], the “Cell Viability MTT Assay in D-U937 cells at 24 hr” value was “− (− <30%)”. The half-inhibitory concentration (IC50) on recombinant PI3 kinase α is 50 to 1000 nM; on recombinant PI3 kinase δ, under 50 nM; at recombinant PI3 kinase γ it was under 50 nM; in data set [2], under 10 nM.
For `COCCN(CCCC#Cc1cccc2nc(Cn3nc(-c4ccc(O)cc4)c4c(N)ncnc43)n(Cc3ccccc3Cl)c(=O)c12)CCOC` [Example 73, 2-((4-Amino-3-(4-hydroxyphenyl)-1H-pyrazolo[3,4-d]pyrimidin-1-yl)methyl)-5-(5-(bis(2-methoxyethyl)amino)pent-1-ynyl)-3-(2-chlorobenzyl)quinazolin-4(3H)-one], in data set [1], the “Cell Viability MTT Assay in D-U937 cells at 4 hr” value is reported as “− (− <30%)”. Besides, in data set [1], the “Cell Viability MTT Assay in D-U937 cells at 24 hr” value is reported as “− (− <30%)”. For the same compound, the IC50 is 50 to 1000 nM on recombinant PI3 kinase α, under 50 nM at recombinant PI3 kinase δ, under 50 nM at recombinant PI3 kinase γ and under 10 nM in data set [2].
For the compound `Nc1ncnc2c1c(-c1ccc(O)cc1)nn2Cc1nc2cccc(C#CCCCC(=O)NC3CCOCC3)c2c(=O)n1Cc1ccccc1Cl` [Example 75, 6-(2-((4-Amino-3-(4-hydroxyphenyl)-1H-pyrazolo[3,4-d]pyrimidin-1-yl)methyl)-3-(2-chlorobenzyl)-4-oxo-3,4-dihydroquinazolin-5-yl)-N-(tetrahydro-2H-pyran-4-yl) hex-5-ynamide], in data set [1], the “Cell Viability MTT Assay in D-U937 cells at 4 hr” value is on record as “− (− <30%)”. The “Cell Viability MTT Assay in D-U937 cells at 24 hr” value in data set [1] is on record as “− (− <30%)”. The IC50 was 50 to 1000 nM on recombinant PI3 kinase α, under 50 nM on recombinant PI3 kinase δ, under 50 nM on recombinant PI3 kinase γ and under 10 nM in data set [2].
Regarding `Nc1ncnc2c1c(-c1ccc(O)cc1)nn2Cc1nc2cccc(C#CCCCC(=O)NCCN3CCOCC3)c2c(=O)n1Cc1ccccc1Cl` [Example 76, 6-(2-((4-Amino-3-(4-hydroxyphenyl)-1H-pyrazolo[3,4-d]pyrimidin-1-yl)methyl)-3-(2-chlorobenzyl)-4-oxo-3,4-dihydroquinazolin-5-yl)-N-(2-morpholinoethyl)hex-5-ynamide], the “Cell Viability MTT Assay in D-U937 cells at 4 hr” value in data set [1] is “− (− <30%)”. For the same compound, the “Cell Viability MTT Assay in D-U937 cells at 24 hr” value in data set [1] is listed as “− (− <30%)”. Also, the IC50 was 50 to 1000 nM at recombinant PI3 kinase α, under 50 nM at recombinant PI3 kinase δ, under 50 nM at recombinant PI3 kinase γ and under 10 nM in data set [2].
On to `COCCN1CCN(C(=O)CCCC#Cc2cccc3nc(Cn4nc(-c5ccc(O)cc5)c5c(N)ncnc54)n(Cc4ccccc4Cl)c(=O)c23)CC1` [Example 77, 2-((4-Amino-3-(4-hydroxyphenyl)-1H-pyrazolo[3,4-d]pyrimidin-1-yl)methyl)-3-(2-chlorobenzyl)-5-(6-(4-(2-methoxyethyl)piperazin-1-yl)-6-oxohex-1-ynyl) quinazolin-4(3H)-one], for which the “Cell Viability MTT Assay in D-U937 cells at 4 hr” value in data set [1] was “− (− <30%)”. Besides, the “Cell Viability MTT Assay in D-U937 cells at 24 hr” value in data set [1] is reported as “− (− <30%)”. Besides, the half-maximal inhibitory concentration (IC50) at recombinant PI3 kinase α was 50 to 1000 nM; on recombinant PI3 kinase δ it was under 50 nM; on recombinant PI3 kinase γ it was under 50 nM; in data set [2] it was under 10 nM.
Take `CN(C)CCNC(=O)CCCC#Cc1cccc2nc(Cn3nc(-c4ccc(O)cc4)c4c(N)ncnc43)n(Cc3ccccc3Cl)c(=O)c12` [Example 78, 6-(2-((4-Amino-3-(4-hydroxyphenyl)-1H-pyrazolo[3,4-d]pyrimidin-1-yl)methyl)-3-(2-chlorobenzyl)-4-oxo-3,4-dihydroquinazolin-5-yl)-N-(2-(dimethylamino)ethyl) hex-5-ynamide]: in data set [1], the “Cell Viability MTT Assay in D-U937 cells at 4 hr” value was “− (− <30%)”. Further, the “Cell Viability MTT Assay in D-U937 cells at 24 hr” value in data set [1] was “− (− <30%)”. For the same compound, the IC50 at recombinant PI3 kinase α is 50 to 1000 nM; at recombinant PI3 kinase δ it was under 50 nM; on recombinant PI3 kinase γ, under 50 nM; in data set [2] it was under 10 nM.
For `Nc1ncnc2c1c(-c1ccc(O)cc1)nn2Cc1nc2cccc(C#CCCCC(=O)Nc3ccncc3)c2c(=O)n1Cc1ccccc1Cl` [Example 79, 6-(2-((4-Amino-3-(4-hydroxyphenyl)-1H-pyrazolo[3,4-d]pyrimidin-1-yl)methyl)-3-(2-chlorobenzyl)-4-oxo-3,4-dihydroquinazolin-5-yl)-N-(pyridin-4-yl)hex-5-ynamide], the “Cell Viability MTT Assay in D-U937 cells at 4 hr” value in data set [1] is “− (− <30%)”. Moreover, the “Cell Viability MTT Assay in D-U937 cells at 24 hr” value in data set [1] was “− (− <30%)”. Also, the concentration for half-maximal inhibition (IC50) at recombinant PI3 kinase α was 50 to 1000 nM; on recombinant PI3 kinase δ it was under 50 nM; on recombinant PI3 kinase γ, 50 to 1000 nM; in data set [2] it was under 10 nM.

The record behind these values is patent publication US9321773B2, “Compounds” (Respivert Ltd, priority 2009, dated 2016).
